# Reference: patent US9919058B2, “Polyketal particles including a CpG oligodeoxynucleotide for the treatment of lung cancer” (THE UNITED STATES OF AMERICA, as represented by the …, priority 2014, dated 2018)
# Where two headings read alike, the source gives them in different places.
# Columns and labels:
# [1] = tested on: Rat; conditions: in vivo, po; cited from earlier work
# [2] = tested on: large established tumor; conditions: 3M-052 co-delivered with CpG ODN into the tumor site; tumor size over 500 mm(3); cited from earlier work
# [3] = tested on: Lewis lung cancer; conditions: CpG ODN in combination with chemotherapy; cited from earlier work
# [4] = tested on: advanced NSCLC; conditions: cited from earlier work
# [5] = tested on: Immune Cells; assay: BAL cellularity and IL-12 after i.t. delivery to normal mice; assay type: in vivo; conditions: 50 μg i.t., BAL 2 days later
# Description: FIGS. 4A-4B. Activity of CpG-NP (aggregates provided microprticles “MP’) in vivo. 50 μg of CpG ODN (free or adsorbed onto NP) was administered i.t. to normal mice. BAL was collected and analyzed for (4A) cellularity and (4B) IL-12 levels 2 days later.
# Tissue Collection and Evaluation of Tumor Development: Bronchoalveolar lavage (BAL) fluid was obtained by tracheal cannulation of anesthetized mice. Cell differentials were performed on cytocentrifuged BAL preparations after fixation and staining with Diff-Quick (Dade Behring, Newark, Del.).
# IL-12 levels in BAL and serum were determined by ELISA. Lungs were inflated and fixed by instilling 1 mL of 10% neutral-buffered formalin or periodate lysine paraformaldehyde (PLP) fixative (Wako Chemicals USA, Inc. Richmond, Va.) at 20 cm H2O. Fixed tissue was embedded in paraffin, sectioned, and stained with hematoxylin and eosin for histopathological assessment. Tumor area was evaluated in mid-line sections and quantified using Image J software ver.1.48 (National Institute of Health, Bethesda, Md.).
# ELISA: Cytokine levels in BAL, serum, and culture supernatants were measured by ELISA as previously described (Klinman et al., PNAS 1996; 93:2879-2883). […] Samples were added and bound cytokine detected by the addition of biotin-labeled secondary Ab, followed by phosphatase-conjugated avidin and a phosphatase-specific colorimetric substrate. […]
# [6] = mouse, in vivo
# Description: Biodistribution of CpG ODN. LLC were implanted as described in FIG. 1. […] Tissue samples were stained to identify macrophages (red F4/80^+), DC (red CD205^+) or CpG (green) and analyzed by confocal microscopy.
# Immunohistochemistry and Immunofluorescent Analysis: Tissue sections were deparaffinized with xylene and rehydrated with graded ethanol. Endogenous peroxidase activity was blocked by incubation with 0.3% H2O2 in methanol for 30 min followed by Protein Block (Dako, Carpinteria, Calif.). […] Isotype matched negative controls were included to insure specificity.
# For immunohistochemistry, stained sections were incubated with HRP-conjugated anti-rat or rabbit IgG (simple stain mouse Max Po; Nichirei, Tokyo, Japan) plus 3-amino-9-ethyl carbazole (AEC) substrate for color development (Nichirei). The sections were counterstained with Mayer's hematoxylin (Dako) and images were obtained using an IX50 inverted microscope equipped with digital imaging system (Olympus, Center Valley, Pa.). […] Cell nuclei were visualized with DAPI (Vector). […] Fluorescent images were acquired with a laser-scanning confocal microscope (LSM 510; Zeiss, Thronwood, N.Y.), equipped with a 63x/1.4NA oil objective.
# [7] = tested on: Spleen cells from WT or TLR9 KO mice; assay: In vitro stimulation of spleen cells (CCK-8 proliferation; IL-6/IL-12 ELISA); assay type: cell-based
# Description: FIGS. 2A-2C. In vitro activity of CpG-NP (aggregates provided microprticles “MP’). Spleen cells from WT or TLR9 KO mice were cultured with 1 μM of free or NP adsorbed CpG ODN or 1 μg/mL of R837 (TLR7 ligand). 2A) Cell proliferation after 72 hr. 2B, 2C) IL-12 and IL-6 production after 24 hr.
# In Vitro Cell Proliferation Assay: Single spleen cell suspensions were prepared. 5×10^4 cells/well were cultured in 96-well flat bottomed microtiter plates in complete RPMI 1640 medium supplemented with 10% fetal calf serum, 100 U/mL penicillin, […], […], 1.0 mmol/L sodium pyruvate, NEAA, and 0.0035% 2-ME. The cells were stimulated free ODN, ODN-NP, or R837 (TLR7 agonist) for 72 hr. Cell proliferation was assessed using the CCK-8 assay as per manufacturer's recommendation (Dojindo molecular technologies, Inc. Rockville, Md.).
# ELISA: Cytokine levels in BAL, serum, and culture supernatants were measured by ELISA as previously described (Klinman et al., PNAS 1996; 93:2879-2883). Briefly, paired IL-6 and IL-12-specific mAbs were purchased from BD Pharmingen. Ninety-six-well Immulon H2B plates (Thermo LabSystems, Beverly, Mass.) were coated with capture cytokine-specific Abs and then blocked with PBS/1% BSA. Samples were added and bound cytokine detected by the addition of biotin-labeled secondary Ab, followed by phosphatase-conjugated avidin and a phosphatase-specific colorimetric substrate. Standard curves were generated using recombinant cytokines purchased from R&D Systems (Minneapolis, Minn.).
# [8] = in vivo; cited from earlier work
# [9] = tested on: Lewis lung carcinoma (LLC1) cells
# Description: Treatment Protocols and Tumor Cell Implantation: C57BL/6, TLR9 KO and Rag1 KO mice were obtained from the National Cancer Institute (Frederick, Md.) and studied at 5-6 wk of age. […] On the day of inoculation, cultured cells were trypsinized, washed and suspended in 0.9% saline.
# One week later, free ODN or ODN-NP were administered either systemically (i.p.) or locally (i.t.). Instillation was achieved via orotracheal intubation using a 20 gauge 1″ catheter (TERUMO, Somerset, N.J.) under anesthesia. Survival curves were generated from 4-6 mice per group and all results derived by combining data from 2-4 independent experiments. All animals were monitored 3×/wk and moribund mice euthanized as per Institutional Animal Care and Use Committee protocol.
# Statistical Analysis: Statistical analyses were performed using MedCalc, version 13.0 (MedCalc Software, Mariakerke, Belgium). Differences in survival were determined using the log rank test of Kaplan-Meier. Differences between groups were assessed using a one-way ANOVA followed by Student-Newman-Keuls post-hoc test. […] All values are expressed as mean±SE.
molecule,measurement,setting,value
"OCC1CCC(CO)CC1 (centres unmarked) [1,4-cyclohexanedimethanol]",LD50,[1],"3,200 mg/kg"
"CCCCCCCCCCCCCCCCCC(=O)NCCCCOn1c(CCCC)nc2c(N)nc3ccccc3c21 [3M-052, N-(4-{[4-amino-2-butyl-1H-imidazo[4,5-c]quinolin-1-yl]oxy}butyl) octadecanamide]",effect on established tumor,[2],eliminated the large established tumor
GCTAGACGTTAGCGT [CpG ODN],effect on survival,[3],significantly prolonged survival
same,objective response rate,"[4]; patients who received CpG ODN, chemotherapy alone 19-23%",28-30%
same,survival benefit in phase 3 trials,"[4]; patients with NSCLC, phase 3",no survival benefit was observed
same,pulmonary IL-12 levels,[5],significant increase in pulmonary IL-12 levels
same,rise in BAL cellularity vs saline,[5]; normal mice,≈ 25%
same,clearance from the lungs,[6],rapidly cleared from the lungs
same,localisation in lung,[6],detected throughout the mucosal surface of the bronchial tree
same,localisation/persistence in lung and tumor,[6],little of this material remained in the bronchi or could be detected in the tumor
same,response of cells from TLR9 KO mice,[7]; TLR9 KO spleen cells,failed to respond
same,IL-6 and IL-12 secretion,"[7]; WT spleen cells, 1 μM, 24 hr",induced WT cells to secrete IL-6 and IL-12
same,cell proliferation,"[7]; WT spleen cells, 1 μM, 3 days (72 hr)",proliferate over 3 days
same,relative effectiveness of free CpG vs CpG-NP,"[7]; WT spleen cells, 24 hr vs 3 days of culture",more effective at the earlier time point
same,mean t1/2,[8],≈ 12 h
same,median tmax,[8],2 h
same,median survival time,"[9]; 50 μg i.t. weekly for one month from day 7, C57BL/6, untreated 22 days",38 days
same,HR (survival vs No Rx),[9]; dose of ODN 10 μg,0.33
same,long term survival,[9]; dose of ODN 10 μg weekly for one month,< 40%
same,long term survival,[9]; dose of ODN 50 μg weekly for one month,> 80%
same,toxicity,[9]; dose of ODN 100 μg,evidence of toxicity (pulmonary inflammation and weight loss)
same,HR (survival vs No Rx),"[9]; intra-tracheal (i.t.) delivery, 50 μg",0.28
same,tumors on re-challenge of survivors with LLC,[9]; survivors of therapy re-challenged,no tumors arose
same,HR (survival vs No Rx),[9]; systemic (i.p.) delivery,0.55
same,effect on survival,[9]; systemic (i.p.) delivery,modest but statistically insignificant survival benefit
"GCTAGAGCTTAGCGT [control ODN, reference compound]",effect on survival,[9]; i.t. delivery,no effect
